Test results from article PMC12334614, “Chidamide and cytarabine synergistically treat acute myeloid leukemia: inhibiting ribosome biogenesis via the MYC-RRP9 pathway” (Cell Death & Disease, 2025).

How the values were obtained:
[1] = biological target: T1, MYC (Homo sapiens, UniProt P01106, A416G/K413A/P406A/V409A); assay: SPR (Biacore X100, steady-state affinity); assay type: binding
T1 construct: recombinant MYC protein carrying the predicted substitutions (MedChemExpress HY-P7S1056)

[2] = biological target: T2, c-MYC (Homo sapiens, UniProt P01106); assay: SPR (Biacore X100, steady-state affinity); assay type: binding
T2 construct: recombinant c-MYC protein (RayBiotech) immobilized on CM5 chip
T2 sequence (P01106 16-454): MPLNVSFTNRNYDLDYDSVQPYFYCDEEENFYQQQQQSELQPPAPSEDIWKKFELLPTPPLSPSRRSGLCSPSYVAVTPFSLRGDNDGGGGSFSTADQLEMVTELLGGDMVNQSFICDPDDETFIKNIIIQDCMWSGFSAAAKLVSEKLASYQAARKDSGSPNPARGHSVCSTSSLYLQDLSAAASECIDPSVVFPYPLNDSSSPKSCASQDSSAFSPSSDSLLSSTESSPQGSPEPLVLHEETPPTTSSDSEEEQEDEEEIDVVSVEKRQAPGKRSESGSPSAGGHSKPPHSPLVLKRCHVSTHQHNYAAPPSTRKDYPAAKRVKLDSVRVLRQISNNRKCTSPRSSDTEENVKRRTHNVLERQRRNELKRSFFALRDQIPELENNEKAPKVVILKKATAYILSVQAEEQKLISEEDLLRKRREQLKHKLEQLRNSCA

T1 sequence (P01106 16-454 P406A/V409A/K413A/A416G): as the sequence (P01106 16-454) above, with P391A, V394A, K398A, A401G counted along it

Question: `Nc1cc(F)ccc1NC(=O)c1ccc(CNC(=O)/C=C/c2cccnc2)cc1` [chidamide] was tested. Which Kd [1] did it give?
Answer: 3.12 µM

Question: And the Kd [2]?
Answer: 0.795 µM
